Experimental findings from US10035814B2, “Guanine analogs as telomerase substrates and telomere length affectors” (Geron Corporation, priority 2011, dated 2018) are described below.

Values joined by “and” are separate entries in the source; they are usually repeats but may differ in a detail not shown here. Identical values can stand only once.

One assay concerns the target telomerase (Homo sapiens (Human), UniProt O14746). Description: Primer extension assay for telomerase activity. As to conditions: for EC50: read-out: Primer Ext. Assay EC50. In kind it is biochemical. On the procedure:
Purified human telomerase was incubated with d(TTAGGG)3 (SEQ ID NO: 1) and deoxy-nucleoside triphosphates for 90 minutes at 37° C. All reactions were done in the presence of 200 dTTP and 10 μM dATP (50,000 cpm/pmol a-^33P-dATP). Activity was determined by incubating affinity purified telomerase extract with 1 μM primer [d(TTAGGG)3] (SEQ ID NO: 1), 200 μM dTTP, 50 μM dGTP, 10 μM dATP, 10 μCi [α-^33P]dATP (2000-4000 Ci/mmol) in a buffer containing 50 mM (N-2-hydroxyethyl piperazine-N′-3 propanesulfonic acid)-NaOH pH 8.5, 1 mM MgCl2, 1 mM DTT, 5% glycerol, 0.5 mM EGTA and 100 mM KOAc in a final reaction volume of 40 μl. Primer extension products were analyzed on a 15% polyacrylamide gel containing 7 M urea. A characteristic telomerase ladder has multiple bands. If a compound is not a substrate then (TTAGGG)3TTA (21 nt) (SEQ ID NO: 2). If a compound is a chain terminator then (TTAGGG)3TTAG* (22 nt) (SEQ ID NO: 3).
Purified human telomerase was incubated with d(TTAGGG)3 (SEQ ID NO: 1) and deoxy-nucleoside triphosphates for 90 minutes at 37° C. All reactions were done in the presence of 200 dTTP and 10 μM dATP (50,000 cpm/pmol a-^33P-dATP). Activity was determined by incubating affinity purified telomerase extract with […] primer [d(TTAGGG)3] (SEQ ID NO: 1), […] [α-^33P]dATP (2000-4000 Ci/mmol) in a buffer containing 50 mM (N-2-hydroxyethyl piperazine-N′-3 propanesulfonic acid)-NaOH pH 8.5, 1 mM MgCl2, 1 mM DTT, 5% glycerol, 0.5 mM EGTA and 100 mM KOAc in a final reaction volume of 40 μl. Primer extension products were analyzed on a 15% polyacrylamide gel containing 7 M urea. A characteristic telomerase ladder has multiple bands. If a compound is not a substrate then (TTAGGG)3TTA (21 nt) (SEQ ID NO: 2). If a compound is a chain terminator then (TTAGGG)3TTAG* (22 nt) (SEQ ID NO: 3).

A further assay has as its target telomerase in HT3 cells (Homo sapiens (Human), UniProt O14746). Description: Ex vivo TRAP assay in HT3 cells. It counts as cell-based. The following applies: HT3 cells; for EC50: 3 days, read-out: ExVivo TRAP EC50 (μM)- 3 Day Assay. The protocol:
HT3 cells were treated for three days with increasing concentrations of PMPG-diisopropyloxy ester ranging from 0.2 μM to 20 μM. Cells (HT3 RPMI+10% PBS) were incubated with compound for 24 hr after which PSTS primer (phosphorothioate-d(AATCCGTCGAGCAGAGTT (SEQ ID NO: 6) containing a 5′ Cy-5 label) (7.5 μM) and fresh compound are added for an additional 24 hr. Cells were lysed and endogenous telomerase inactivated by heating (15 min, 75° C.). Products were amplified by 30 cycles of PCR under TRAP conditions set forth above and quantified. The results of two independent experiments are shown in Table 4.
HT3 cells were treated for three days with increasing concentrations of one or more of the indicated compounds ranging from 0.2 μM to 20 μM. Cells (HT3 RPMI+10% FBS) were incubated with compound for 24 hours, after which PSTS primer (phosphorothioate-d AATCCGTCGAGCAGAGTT (SEQ ID NO: 6) containing a 5′ Cy-5 label) (7.5 μM) and fresh compound were added for an additional 24 hours. Cells were lysed and endogenous telomerase inactivated by heating (15 minutes, 75° C.). Products were amplified by 30 cycles of PCR under TRAP conditions set forth in Kim et al., Science 266:2011, […] (which reference is incorporated herein in its entirety) and quantified.

Sequence of telomerase in HT3 cells (O14746 whole entry): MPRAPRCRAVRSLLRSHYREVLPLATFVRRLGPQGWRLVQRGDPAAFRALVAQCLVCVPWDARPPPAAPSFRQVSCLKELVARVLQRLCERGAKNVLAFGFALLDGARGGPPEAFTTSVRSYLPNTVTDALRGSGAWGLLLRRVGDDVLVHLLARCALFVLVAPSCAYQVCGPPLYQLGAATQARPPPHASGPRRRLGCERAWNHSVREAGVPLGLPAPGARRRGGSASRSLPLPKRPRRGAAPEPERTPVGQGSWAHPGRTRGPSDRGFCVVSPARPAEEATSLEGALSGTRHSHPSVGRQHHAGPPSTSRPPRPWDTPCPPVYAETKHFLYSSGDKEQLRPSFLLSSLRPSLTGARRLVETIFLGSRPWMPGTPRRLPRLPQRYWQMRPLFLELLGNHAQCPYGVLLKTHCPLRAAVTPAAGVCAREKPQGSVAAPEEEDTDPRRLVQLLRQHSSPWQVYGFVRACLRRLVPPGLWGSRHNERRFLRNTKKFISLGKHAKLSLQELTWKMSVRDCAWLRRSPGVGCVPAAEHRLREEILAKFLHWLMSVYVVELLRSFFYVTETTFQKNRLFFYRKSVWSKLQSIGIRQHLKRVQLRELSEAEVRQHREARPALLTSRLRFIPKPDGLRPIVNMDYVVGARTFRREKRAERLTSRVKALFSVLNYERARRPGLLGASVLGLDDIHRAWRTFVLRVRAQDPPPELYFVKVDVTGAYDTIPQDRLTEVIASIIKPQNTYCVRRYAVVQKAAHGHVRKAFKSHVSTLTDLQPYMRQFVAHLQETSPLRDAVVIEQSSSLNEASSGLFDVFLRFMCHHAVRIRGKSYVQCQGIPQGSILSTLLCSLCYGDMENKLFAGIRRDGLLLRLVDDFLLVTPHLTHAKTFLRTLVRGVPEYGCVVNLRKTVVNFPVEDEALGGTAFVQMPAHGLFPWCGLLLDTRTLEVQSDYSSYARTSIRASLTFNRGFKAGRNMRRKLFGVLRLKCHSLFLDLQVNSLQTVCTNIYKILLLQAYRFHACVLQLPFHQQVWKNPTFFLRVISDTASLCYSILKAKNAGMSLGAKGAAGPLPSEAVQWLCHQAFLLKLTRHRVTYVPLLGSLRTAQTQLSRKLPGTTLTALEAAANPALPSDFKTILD
Sequence of telomerase in HT3 cells (O60832 whole entry partner): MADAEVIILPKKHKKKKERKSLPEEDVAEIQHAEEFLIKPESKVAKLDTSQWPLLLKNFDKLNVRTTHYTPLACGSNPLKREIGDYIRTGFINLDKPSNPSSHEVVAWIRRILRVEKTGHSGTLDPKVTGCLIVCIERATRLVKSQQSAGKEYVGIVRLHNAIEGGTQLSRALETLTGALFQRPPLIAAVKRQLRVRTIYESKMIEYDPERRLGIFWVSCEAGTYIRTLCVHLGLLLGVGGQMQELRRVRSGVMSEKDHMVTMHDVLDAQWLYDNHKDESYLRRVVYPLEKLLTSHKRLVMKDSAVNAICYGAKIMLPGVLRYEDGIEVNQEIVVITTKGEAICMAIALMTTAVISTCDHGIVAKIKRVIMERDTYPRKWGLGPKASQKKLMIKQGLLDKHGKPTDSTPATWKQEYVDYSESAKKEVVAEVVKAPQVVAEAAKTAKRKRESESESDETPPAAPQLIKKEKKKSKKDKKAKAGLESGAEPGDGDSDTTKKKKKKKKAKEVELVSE
Sequence of telomerase in HT3 cells (Q9NX24 whole entry partner): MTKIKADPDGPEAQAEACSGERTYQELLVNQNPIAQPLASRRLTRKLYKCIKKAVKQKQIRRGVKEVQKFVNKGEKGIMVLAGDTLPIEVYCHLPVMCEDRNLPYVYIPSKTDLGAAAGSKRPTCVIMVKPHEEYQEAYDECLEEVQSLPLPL
Sequence of telomerase in HT3 cells (Q9NPE3 whole entry partner): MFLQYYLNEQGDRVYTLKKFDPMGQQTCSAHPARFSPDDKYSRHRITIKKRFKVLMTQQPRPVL
Sequence of telomerase in HT3 cells (Q9NY12 whole entry partner): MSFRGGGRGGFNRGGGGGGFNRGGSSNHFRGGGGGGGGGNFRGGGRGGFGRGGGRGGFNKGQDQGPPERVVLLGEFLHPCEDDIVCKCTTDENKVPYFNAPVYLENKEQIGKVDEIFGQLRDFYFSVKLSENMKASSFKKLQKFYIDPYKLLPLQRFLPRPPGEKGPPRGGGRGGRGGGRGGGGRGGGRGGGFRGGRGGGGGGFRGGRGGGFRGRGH
Sequence of telomerase in HT3 cells (Q9BUR4 whole entry partner): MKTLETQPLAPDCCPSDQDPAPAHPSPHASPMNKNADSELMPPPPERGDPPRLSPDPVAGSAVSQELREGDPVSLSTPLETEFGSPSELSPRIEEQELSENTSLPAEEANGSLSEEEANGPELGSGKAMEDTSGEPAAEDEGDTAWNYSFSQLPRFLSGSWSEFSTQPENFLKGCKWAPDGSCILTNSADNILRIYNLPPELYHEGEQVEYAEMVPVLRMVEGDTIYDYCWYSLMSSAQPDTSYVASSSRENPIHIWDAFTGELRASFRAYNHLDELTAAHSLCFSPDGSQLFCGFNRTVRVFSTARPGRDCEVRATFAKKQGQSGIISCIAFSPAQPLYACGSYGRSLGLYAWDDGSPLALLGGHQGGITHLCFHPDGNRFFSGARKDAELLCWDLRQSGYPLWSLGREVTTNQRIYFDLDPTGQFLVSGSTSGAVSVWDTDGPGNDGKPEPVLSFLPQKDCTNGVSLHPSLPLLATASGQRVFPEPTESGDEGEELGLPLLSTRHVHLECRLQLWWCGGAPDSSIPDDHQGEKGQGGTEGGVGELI
Sequence of telomerase (O14746 whole entry): as the sequence (O14746 whole entry) above

Consider `CC(Cn1cnc2c(=O)[nH]c(N)nc21)OCP(=O)(O)OP(=O)(O)OP(=O)(O)O` (single isomer, unassigned) [Compound 142692], for which, on telomerase, the “Primer Ext. Assay Notes: telomerase substrate / chain terminator” value was “Chain terminator” and the EC50 fell in the range of 0.5 to 1.2 µM.

In the case of `CC(C)OC(=O)OCOP(=O)(COC(C)Cn1cnc2c(=O)[nH]c(N)nc21)OCOC(=O)OC(C)C` (single isomer, unassigned) [ID#142748, PMPG prodrug, S form], the IC50 at telomerase in HT3 cells (0.2 μM to 20 μM, two independent experiments, read-out: Ex vivo Assay IC 50) was > 20 µM.

For the molecule `CC(Cn1cnc2c(=O)[nH]c(N)nc21)OCP(=O)(O)O` (single isomer, unassigned) [compound 142693], the EC50 at telomerase in HT3 cells was determined as 11.7 µM.

In the case of `CC(C)OC(=O)OCOP(=O)(COC(C)Cn1cnc2c(=O)[nH]c(N)nc21)OCOC(=O)OC(C)C` (single isomer, unassigned) [compound 142715], the EC50 at telomerase in HT3 cells was 1.2 µM and 3.1 µM.

As to `C[C@@H](COCP(=O)(O)OP(=O)(O)OP(=O)(O)O)Cn1cnc2c(=O)[nH]c(N)nc21` (stereo in doubt) [Compound 142860], the “Primer Ext. Assay Notes: telomerase substrate / chain terminator” value on telomerase is given as “Weak chain terminator”.

In the case of `CC(Cn1cnc2c(=O)[nH]c(N)nc21)OCP(=O)(O)OP(=O)(O)OP(=O)(O)O` (stereo not drawn) [Compound 142751], the “Primer Ext. Assay Notes: telomerase substrate / chain terminator” value at telomerase is given as “Weak chain terminator”.

With `CC(Cn1cnc2c(=S)[nH]c(N)nc21)OCP(=O)(O)OP(=O)(O)OP(=O)(O)O` (stereo not drawn) [Compound 142752], the “Primer Ext. Assay Notes: telomerase substrate / chain terminator” value on telomerase is “Weak chain terminator”.

With `CC(Cn1cnc2c(=S)[nH]c(N)nc21)OCP(=O)(O)OP(=O)(O)OP(=O)(O)O` (stereo not drawn) [Compound 142761], on telomerase, the “Primer Ext. Assay Notes: telomerase substrate / chain terminator” value is “Chain terminator” and the EC50 was determined as 13.5 µM.

`C=C(COCP(=O)(O)OP(=O)(O)OP(=O)(O)O)Cn1cnc2c(=O)[nH]c(N)nc21` [Compound 142810]: at telomerase, the “Primer Ext. Assay Notes: telomerase substrate / chain terminator” value is “Chain Terminator” and the EC50 came to 1.4 µM.

`C[C@H](Cn1cnc2c(=O)[nH]c(N)nc21)SCP(=O)(O)OP(=O)(O)OP(=O)(O)O` [Compound 142823]: the “Primer Ext. Assay Notes: telomerase substrate / chain terminator” value on telomerase was “Weak chain terminator”.

In the case of `CC(COCP(=O)(O)OP(=O)(O)OP(=O)(O)O)Cn1cnc2c(=O)[nH]c(N)nc21` (stereo not drawn) [Compound 142846], on telomerase, the “Primer Ext. Assay Notes: telomerase substrate / chain terminator” value is “Chain terminator” and the EC50 worked out at 4.4 µM.

For the molecule `Nc1nc2c(ncn2CCCOCP(=O)(O)OP(=O)(O)OP(=O)(O)O)c(=O)[nH]1` [Compound 142848], on telomerase, the “Primer Ext. Assay Notes: telomerase substrate / chain terminator” value is given as “Chain terminator”; the “potency relative to PMPG (R-PMPGpp), times less potent” value is ~2; the EC50 is 1.5 µM.

Take `Nc1nc2c(ncn2CC(OCP(=O)(O)OP(=O)(O)OP(=O)(O)O)C(F)(F)F)c(=O)[nH]1` (stereo not drawn) [Compound 142850]: the “Primer Ext. Assay Notes: telomerase substrate / chain terminator” value on telomerase is recorded as “Weak chain terminator”.

As for `Nc1nc2c(ncn2CC(CF)OCP(=O)(O)OP(=O)(O)OP(=O)(O)O)c(=O)[nH]1` (stereo not drawn) [Compound 142856], at telomerase, the “Primer Ext. Assay Notes: telomerase substrate / chain terminator” value is reported as “Chain terminator” and the EC50 was 7.5 µM.

As to `CC(COCP(=O)(O)OP(=O)(O)OP(=O)(O)O)n1cnc2c(=O)[nH]c(N)nc21` (stereo not drawn) [Compound 142879], at telomerase, the “Primer Ext. Assay Notes: telomerase substrate / chain terminator” value was “Chain terminator” and the EC50 was 3.1 µM.

Regarding `CC(C)(Cn1cnc2c(=O)[nH]c(N)nc21)OCP(=O)(O)OP(=O)(O)OP(=O)(O)O` [Compound 142891], the “Primer Ext. Assay Notes: telomerase substrate / chain terminator” value at telomerase is recorded as “Weak chain terminator”.

On to `C[C@H](CCn1cnc2c(=O)[nH]c(N)nc21)OCP(=O)(O)OP(=O)(O)OP(=O)(O)O` [Compound 142915], for which the EC50 on telomerase is > 60 µM.

For `CC[C@H](Cn1cnc2c(=O)[nH]c(N)nc21)OCP(=O)(O)OP(=O)(O)OP(=O)(O)O` [Compound 142916], the EC50 at telomerase was 10 µM.

As for `C=C(COCP(=O)(O)OP(=O)(O)OP(=O)(O)O)Cn1cnc2c(=O)[nH]c(N)nc21` [ID#142810, PMIBeG, free acid], the “potency relative to PMPG (R-PMPGpp), times less potent” value on telomerase is on record as “approximately two times less potent than R-PMPGpp”.

As for `CC(Cn1cnc2c(=S)[nH]c(N)nc21)OCP(=O)(O)O` (stereo not drawn) [compound 142694], the EC50 at telomerase in HT3 cells amounted to 7.54 µM.

With `C=C(COCP(=O)(O)O)Cn1cnc2c(=O)[nH]c(N)nc21` [compound 142811], the EC50 on telomerase in HT3 cells was found to be 2.6 µM.

`CC(Cn1cnc2c(=O)[nH]c(N)nc21)OCP(=O)(O)NCCCNCCCCN` (stereo not drawn) [compound 142812]: the EC50 at telomerase in HT3 cells stood at 5 µM.

Turning to `C=C(COCP(=O)(O)NCCCNCCCCN)Cn1cnc2c(=O)[nH]c(N)nc21` [compound 142873], the EC50 on telomerase in HT3 cells is 6.7 µM.

In the case of `CC(Cn1cnc2c(=O)[nH]c(N)nc21)OCP(=O)(O)NCCCNCCCCNCCCNP(=O)(O)COC(C)Cn1cnc2c(=O)[nH]c(N)nc21` (stereo not drawn) [compound 142942], the EC50 at telomerase in HT3 cells is 1.84 µM.

`CCCCCCCCCCNP(=O)(O)COC(C)Cn1cnc2c(=O)[nH]c(N)nc21` (stereo not drawn) [compound 142962]: on telomerase in HT3 cells, the EC50 stood at 1.44 µM.
